Patent US10947245B2, “Crystal form A of 2-butoxy-7-(4-(pyrrolidin-1-ylmethyl)benzyl)-5H-pyrrolo[3,2-d]pyrimidin-4-amine for inhibiting toll-like receptor activity” (priority 2016, dated 2021)

How the values were obtained:
Toll-like receptor 7 = target: T1, Toll-like receptor 7 (Homo sapiens, UniProt Q9NYK1); assay: Toll-like receptor 7 in vitro receptor binding activity screen (HEK-blue hTLR7 cell, Quanti-Blue alkaline phosphatase readout); type: cell-based; details: versus GS-9620
T1 construct: host or cells: HEK-blue hTLR7 cell (HEK293-derived reporter line)
T1 sequence (Q9NYK1 27-1049): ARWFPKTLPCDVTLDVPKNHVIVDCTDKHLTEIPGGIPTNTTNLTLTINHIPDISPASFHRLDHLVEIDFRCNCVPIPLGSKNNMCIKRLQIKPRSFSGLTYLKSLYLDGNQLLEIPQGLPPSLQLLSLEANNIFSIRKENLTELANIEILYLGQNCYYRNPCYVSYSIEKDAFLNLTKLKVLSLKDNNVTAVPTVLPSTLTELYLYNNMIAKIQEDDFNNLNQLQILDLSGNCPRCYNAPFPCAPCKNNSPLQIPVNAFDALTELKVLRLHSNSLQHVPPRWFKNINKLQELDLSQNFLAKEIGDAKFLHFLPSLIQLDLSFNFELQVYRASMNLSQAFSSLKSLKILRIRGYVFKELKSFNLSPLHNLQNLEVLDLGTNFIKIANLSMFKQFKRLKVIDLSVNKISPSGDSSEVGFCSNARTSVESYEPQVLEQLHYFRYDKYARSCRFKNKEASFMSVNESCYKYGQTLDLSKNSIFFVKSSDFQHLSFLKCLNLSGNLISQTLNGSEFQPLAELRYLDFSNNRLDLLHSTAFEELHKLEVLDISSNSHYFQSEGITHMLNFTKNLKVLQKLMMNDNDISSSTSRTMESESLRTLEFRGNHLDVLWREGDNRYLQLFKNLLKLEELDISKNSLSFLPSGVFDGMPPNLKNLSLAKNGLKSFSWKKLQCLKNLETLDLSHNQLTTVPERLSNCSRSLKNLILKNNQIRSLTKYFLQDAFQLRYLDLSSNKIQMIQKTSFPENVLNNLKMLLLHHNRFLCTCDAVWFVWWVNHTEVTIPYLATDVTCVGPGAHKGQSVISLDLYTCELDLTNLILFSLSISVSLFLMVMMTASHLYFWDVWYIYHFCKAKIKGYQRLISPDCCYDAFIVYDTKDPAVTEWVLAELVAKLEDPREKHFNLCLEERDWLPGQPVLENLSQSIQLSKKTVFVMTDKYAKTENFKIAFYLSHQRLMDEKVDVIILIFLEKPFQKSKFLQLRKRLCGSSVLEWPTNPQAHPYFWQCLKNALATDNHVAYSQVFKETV
Method: (§1) Efficacy example 1: Toll-like receptor 7 and Toll-like receptor 8 in vitro receptor binding activity screen
(§2) HEK-blue hTLR7 cell and HEK-blue hTLR8 cell (available from InvivoGen)
(§3) The compounds were gradient diluted with DMSO in 3-fold using liquid work station POD starting at a concentration of 10 mmol/L and 10 points were diluted (2nd column to 11th column, and each point was duplicated). At 12th column, 1 μL of 5 mg/mL positive compound R848 was added as positive control; and at 1st column, 1 μL of DMSO was added as negative control. Each well contained 1 μL of DMSO.
(§4) 2. The cells in culture flask were collected and the cell density was diluted to 250,000 cells/mL.
(§5) 3. 200 μL (50,000 cells/well) of cell suspension was added into prepared compound plate and the final concentration of DMSO in each well was 0.5%.
(§6) 4. The culture plates containing cells and the compounds were incubated in CO2 incubator for 24 h at 37° C., 5% CO2.
(§7) 5. After 24 h incubation, 20 μL of supernatant was removed from each well to a 96-well transparent assay plate. To each well of the assay plate was added 180 μL of Quanti-Blue reagent and the plate was incubated in an incubator at 37° C., 5% CO2 for 1 h.
(§8) 6. After 1 h, the content of alkaline phosphatase in 20 μL of supernatant was determined using Microplate Reader OD650.
(§9) 7. EC50 of each compound was obtained with Prism software.

Toll-like receptor 8 = target: T2, Toll-like receptor 8 (Homo sapiens, UniProt Q9NR97); assay: Toll-like receptor 8 in vitro receptor binding activity screen (HEK-blue hTLR8 cell, Quanti-Blue alkaline phosphatase readout); type: cell-based; details: versus GS-9620
T2 construct: host or cells: HEK-blue hTLR8 cell (HEK293-derived reporter line)
T2 sequence (Q9NR97 27-1041): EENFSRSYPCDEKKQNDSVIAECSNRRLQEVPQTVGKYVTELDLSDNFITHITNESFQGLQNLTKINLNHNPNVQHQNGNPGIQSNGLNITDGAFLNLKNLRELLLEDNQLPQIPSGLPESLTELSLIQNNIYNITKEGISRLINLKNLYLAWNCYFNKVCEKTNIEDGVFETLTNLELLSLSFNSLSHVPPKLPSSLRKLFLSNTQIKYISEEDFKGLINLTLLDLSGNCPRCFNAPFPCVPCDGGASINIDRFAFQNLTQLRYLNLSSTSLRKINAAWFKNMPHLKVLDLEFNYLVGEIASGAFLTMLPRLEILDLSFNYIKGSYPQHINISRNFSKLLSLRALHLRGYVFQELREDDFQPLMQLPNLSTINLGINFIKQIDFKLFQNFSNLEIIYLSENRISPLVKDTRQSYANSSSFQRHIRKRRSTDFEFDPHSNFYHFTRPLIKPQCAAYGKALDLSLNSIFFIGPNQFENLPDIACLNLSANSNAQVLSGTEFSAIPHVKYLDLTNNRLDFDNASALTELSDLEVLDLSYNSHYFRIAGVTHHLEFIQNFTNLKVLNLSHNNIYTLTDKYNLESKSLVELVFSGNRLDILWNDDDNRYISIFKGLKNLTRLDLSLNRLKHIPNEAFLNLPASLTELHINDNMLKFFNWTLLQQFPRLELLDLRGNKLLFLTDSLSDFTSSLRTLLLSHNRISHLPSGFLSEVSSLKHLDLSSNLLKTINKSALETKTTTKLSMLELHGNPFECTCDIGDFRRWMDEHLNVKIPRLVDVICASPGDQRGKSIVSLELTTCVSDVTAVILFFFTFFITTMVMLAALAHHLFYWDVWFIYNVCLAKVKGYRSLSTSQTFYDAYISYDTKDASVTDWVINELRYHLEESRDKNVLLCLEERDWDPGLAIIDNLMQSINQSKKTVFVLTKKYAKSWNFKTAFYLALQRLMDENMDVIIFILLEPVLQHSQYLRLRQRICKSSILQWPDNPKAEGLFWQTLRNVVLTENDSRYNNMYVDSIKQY
Method: as §1, §2, §3, §4, §5, §6, §7, §8, §9

[1] = test system: human peripheral blood mononuclear cells (PBMC); assay: Peripheral blood mononuclear cell test: cytokine stimulation (CBA, flow cytometer); type: cell-based; details: for TNF-α MEC / IFN-α MEC: human PBMC, 24 h; for IFN-α MEC: lowest drug concentration stimulating the production of 30 pg/mL of IFN-α
Method: The purpose of this example is to determine the expression level of cytokines 24 h after stimulation to human peripheral blood mononuclear cells (PBMC) with the compound of formula I.
The cell supernatant was assayed without dilution and the levels of IFN-α were directly determined. The compound of formula I was firstly formulated into 20 mM DMSO stock solution during the test and was gradient diluted with cell medium in 10-fold with the total number of 11 diluting points. The compounds in 9 diluting points (the highest concentration was 200 μmol/L) were added into 96-well plate with 50 μL in each well. Fresh human peripheral blood mononuclear cells were inoculated, with 150 μL in each well containing 450,000 cells. The cell culture plate was incubated in an incubator at 37° C., 5% CO2 for 24 h. After incubation, the culture plate was centrifuged at 1200 rpm for 5 min and the supernatant was collected and stored at −20° C. for determination. The determination of cytokine was performed using Cytometric Bead Array (CBA) of BD-Pharmingen on flow cytometer. Using the above determining method, the lowest drug concentration stimulating the production of 30 pg/mL of IFN-α was designated as the MEC value in the cytokine stimulating test.

[2] = High temperature stability test (60° C., open container); type: physicochemical; details: for Appearance / Content / Total content of impurities: open container
Method: The crystal form A of the compound of formula I was tested in the accelerated test under high temperature conditions for stability in accordance with Guidelines for the Stability Test of Pharmaceutical Ingredients and Pharmaceutical Preparations (Chinese Pharmacopoeia 2010 Appendix XIXC).
The crystal form A prepared in Example 1 was placed in an open-clean container at 60° C. The samples were taken for test on day 10, day 20 and day 30, respectively.

[3] = High humidity stability test (40° C./75% humidity, open); type: physicochemical; details: for Appearance / Content / Total content of impurities: 40° C./75% humidity (open)
Method: The crystal form A of the compound of formula I was tested in the accelerated test under high humidity conditions for stability in accordance with Guidelines for the Stability Test of Pharmaceutical Ingredients and Pharmaceutical Preparations (Chinese Pharmacopoeia 2010 Appendix XIXC).
The crystal form A prepared in Example 1 was subjected to an accelerated test in a constant temperature and humidity vessel under the conditions of 40° C./75% humidity (open). The samples were taken for test on day 30, day 60 and day 90, respectively.

Compound: CCCCOc1nc(N)c2[nH]cc(Cc3ccc(CN4CCCC4)cc3)c2n1 [Compound of formula I, 2-butoxy-7-(4-(pyrrolidin-1-ylmethyl)benzyl)-5H-pyrrolo[3,2-d]pyrimidin-4-amine]
- in vitro receptor binding activity to Toll-like receptor 7 compared with control GS-9620 (in words) (Toll-like receptor 7): higher in vitro receptor binding activity to Toll-like receptor 7 than the control
- in vitro receptor binding activity to Toll-like receptor 8 compared with control GS-9620 (in words) (Toll-like receptor 8): lower in vitro receptor binding activity to Toll-like receptor 8 than the control
- TNF-α MEC [1]: 500 nM
- IFN-α MEC [1]: 5 nM
- TNF-α inducing activity compared with control GS-9620 (in words) ([1]; versus GS-9620): comparable TNF-α inducing activity
- in vitro IFN-α inducing activity of PBMCs compared with control GS-9620 (in words) ([1]; versus GS-9620): better in vitro IFN-α inducing activity of PBMCs

Compound: CCCCOc1nc(N)c2c(n1)N(Cc1cccc(CN3CCCC3)c1)CC(=O)N2 [GS-9620, reference compound]
- TNF-α MEC [1]: 500 nM
- IFN-α MEC [1]: 50 nM

Compound: CCCCOc1nc(N)c2[nH]cc(Cc3ccc(CN4CCCC4)cc3)c2n1 [crystal form A, 2-butoxy-7-(4-(pyrrolidin-1-ylmethyl)benzyl)-5H-pyrrolo[3,2-d]pyrimidin-4-amine]
- Appearance ([2]; day 0 (initial)): White powder
- Content ([2]; day 0 (initial)): 99.8%
- Total content of impurities ([2]; day 0 (initial)): 0.92%
- Appearance ([2]; day 10): Light yellow powder
- Content ([2]; day 10): 98.5%
- Total content of impurities ([2]; day 10): 1.10%
- Appearance ([2]; day 20): Light yellow powder
- Content ([2]; day 20): 98.1%
- Total content of impurities ([2]; day 20): 1.18%
- Appearance ([2]; day 30): Light yellow powder
- Content ([2]; day 30): 98.8%
- Total content of impurities ([2]; day 30): 1.29%
- stability in high temperature conditions (in words) ([2]; up to 30 days): good stability in high temperature conditions
- Appearance ([3]; day 0 (initial)): White powder
- Content ([3]; day 0 (initial)): 100.2%
- Total content of impurities ([3]; day 0 (initial)): 0.92%
- Appearance ([3]; day 30): White powder
- Content ([3]; day 30): 99.9%
- Total content of impurities ([3]; day 30): 0.92%
- Appearance ([3]; day 60): White powder
- Content ([3]; day 60): 99.9%
- Total content of impurities ([3]; day 60): 0.65%
- Appearance ([3]; day 90): White powder
- Content ([3]; day 90): 100.2%
- Total content of impurities ([3]; day 90): 0.93%
- stability in high humidity conditions (in words) ([3]; 40° C./75% humidity, up to 90 days): good stability in high humidity conditions
